Data taken from PubChem BioAssay (NCI).
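Cells were grown in 96-well plates and exposed to each compound for 48 hours at five concentrations; endpoints were interpolated linearly between bracketing concentrations, or set to the highest concentration if not reached. At the TGI there is no net growth.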

Tests used:
Assay in all cases: NCI tumour cell line growth inhibition, 48 h
[1] = test system: HS 578T breast
[2] = test system: A549 NSCLC
[3] = test system: OVCAR-5 ovarian
[4] = test system: IGROV1 ovarian
[5] = test system: COLO 205 colon
[6] = test system: OVCAR-4 ovarian
[7] = test system: UACC-62 melanoma
[8] = test system: CCRF-CEM leukemia
[9] = test system: ACHN renal
[10] = test system: MCF7 breast
[11] = test system: CAKI-1 renal
[12] = test system: SNB-19 CNS
[13] = test system: SF-268 CNS
[14] = test system: DU-145 prostate
[15] = test system: HCT-15 colon
[16] = test system: HOP-62 NSCLC
[17] = test system: OVCAR-8 ovarian
[18] = test system: A498 renal
[19] = test system: U251 CNS
[20] = test system: LOX IMVI melanoma
[21] = test system: T-47D breast
[22] = test system: MDA-N
[23] = test system: SF-295 CNS
[24] = test system: NCI-H460 lung
[25] = test system: SF-539 CNS
[26] = test system: NCI-H23 lung
[27] = test system: UACC-257 melanoma
[28] = test system: SR leukemia
[29] = test system: BT-549 breast
[30] = test system: SK-OV-3 ovarian
[31] = test system: HT29 colon
[32] = test system: RPMI-8226 leukemia
[33] = test system: EKVX NSCLC
[34] = test system: 786-0 renal
[35] = test system: KM12 colon
[36] = test system: MDA-MB-435
[37] = test system: NCI/ADR-RES ovarian
[38] = test system: NCI-H522 lung
[39] = test system: SK-MEL-2 melanoma
[40] = test system: MOLT-4 leukemia
[41] = test system: PC-3 prostate
[42] = test system: SK-MEL-28 melanoma
[43] = test system: UO-31 renal
[44] = test system: HCT-116 colon
[45] = test system: HCC-2998 colon
[46] = test system: MALME-3M melanoma
[47] = test system: K-562 leukemia
[48] = test system: HL-60(TB) leukemia
[49] = test system: SW-620 colon
[50] = test system: SK-MEL-5 melanoma
[51] = test system: OVCAR-3 ovarian
[52] = test system: M14 melanoma

Work on CN1CCN(Cc2ccc(C(=S)Nc3ccccc3)s2)CC1 yielded a TGI [1] greater than 100 µM, a TGI [2] greater than 100 µM and a TGI [3] greater than 100 µM. It also gave a TGI [4] of 75.8 µM, a TGI [5] of 45.9 µM and a TGI [6] greater than 100 µM. The TGI [7] was 41.3 µM, the TGI [8] was greater than 100 µM and the TGI [9] was greater than 100 µM. For the same molecule, the TGI [10] was greater than 100 µM, the TGI [11] was greater than 100 µM and the TGI [12] was greater than 100 µM. The TGI [13] was greater than 100 µM, the TGI [14] was greater than 100 µM and the TGI [15] was 55.4 µM. For the same molecule, the TGI [16] was greater than 100 µM, the TGI [17] was greater than 100 µM and the TGI [18] was greater than 100 µM. It also gave a TGI [19] greater than 100 µM, a TGI [20] of 31.9 µM and a TGI [21] greater than 100 µM. It also gave a TGI [22] greater than 100 µM, a TGI [23] greater than 100 µM and a TGI [24] greater than 100 µM. The TGI [25] was greater than 100 µM, the TGI [26] was 61.8 µM and the TGI [27] was greater than 100 µM. The TGI [28] was 73 µM, the TGI [29] was 76.3 µM and the TGI [30] was greater than 100 µM. It also gave a TGI [31] of 47.1 µM, a TGI [32] greater than 100 µM and a TGI [33] greater than 100 µM. For the same molecule, the TGI [34] was greater than 100 µM, the TGI [35] was greater than 100 µM and the TGI [36] was greater than 100 µM. The TGI [37] was greater than 100 µM, the TGI [38] was greater than 100 µM and the TGI [39] was greater than 100 µM. The TGI [40] was greater than 100 µM, the TGI [41] was greater than 100 µM and the TGI [42] was 36.1 µM. It also gave a TGI [43] greater than 100 µM, a TGI [44] greater than 100 µM and a TGI [45] greater than 100 µM. It also gave a TGI [46] greater than 100 µM, a TGI [47] of 95.9 µM and a TGI [48] greater than 100 µM. The TGI [49] was greater than 100 µM, the TGI [50] was 34.1 µM and the TGI [51] was greater than 100 µM. For the same molecule, the TGI [52] was 31.9 µM.
